Calls of active or inactive are those of the source. No cut-off for these calls is given here.
Key:
[1] = Cytotoxicity against mouse 3T3L1 cells assessed as effect on lactate dehydrogenase release at 5 to 50 uM measured on day 2; type: cell-based; conditions: 3t3-l1, 50 µM
3T3-L1 [2] = assay: Effect on adipogenesis in mouse 3T3L1 cells in DI media assessed as reduction in fat-laden mature adipocytes at 50 uM after 8 days by oil red o assay; type: functional, cell-based
3T3-L1 [3] = assay: Effect on adipogenesis in mouse 3T3L1 cells assessed as reduction in Fabp4 gene expression at 5 to 50 uM after 4 days by real time quantitative PCR analysis relative to vehicle-treated control; type: functional, cell-based
[4] = Effect on adipogenesis in mature mouse 3T3L1 cells assessed as upregulation of Sirt1 gene expression; type: functional, cell-based; conditions: 3T3-L1
[5] = Cytotoxicity against mouse 3T3L1 cells assessed as effect on lactate dehydrogenase release at 5 to 50 uM measured on day 8; type: cell-based; conditions: 3t3-l1, 50 µM
3T3-L1 [6] = assay: Reduction of adipogenesis in mouse 3T3L1 cells assessed as decrease in lipid accumulation measured on day 8 by oil red o assay; type: functional, cell-based
[7] = target: T1, Peroxisome proliferator-activated receptor gamma (Homo sapiens, UniProt P37231); assay: Competitive binding to human GST-tagged PPAR-gamma by TR-FRET assay
T1 sequence (P37231 whole entry): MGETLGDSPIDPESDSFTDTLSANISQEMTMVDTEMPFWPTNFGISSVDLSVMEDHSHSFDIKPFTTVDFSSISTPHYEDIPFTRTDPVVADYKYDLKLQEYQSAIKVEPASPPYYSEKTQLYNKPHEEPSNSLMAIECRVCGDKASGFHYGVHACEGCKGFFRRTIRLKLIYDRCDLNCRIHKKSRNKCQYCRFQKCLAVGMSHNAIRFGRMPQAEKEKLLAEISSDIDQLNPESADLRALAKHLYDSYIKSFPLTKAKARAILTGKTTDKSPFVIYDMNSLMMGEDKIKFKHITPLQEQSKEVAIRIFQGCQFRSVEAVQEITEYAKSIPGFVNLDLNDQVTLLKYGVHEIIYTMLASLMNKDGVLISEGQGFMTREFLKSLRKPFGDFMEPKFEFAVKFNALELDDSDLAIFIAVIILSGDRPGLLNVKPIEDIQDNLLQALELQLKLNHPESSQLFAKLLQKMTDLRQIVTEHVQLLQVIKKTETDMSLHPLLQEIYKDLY

[8] = target: T2, Peroxisome proliferator-activated receptor gamma (Mus musculus) (UniProt P37238); assay: Agonist activity at PPAR-gamma in mouse embryo fibroblast at 5 to 50 uM by transactivation assay relative to rosiglitazone
T2 sequence (whole entry): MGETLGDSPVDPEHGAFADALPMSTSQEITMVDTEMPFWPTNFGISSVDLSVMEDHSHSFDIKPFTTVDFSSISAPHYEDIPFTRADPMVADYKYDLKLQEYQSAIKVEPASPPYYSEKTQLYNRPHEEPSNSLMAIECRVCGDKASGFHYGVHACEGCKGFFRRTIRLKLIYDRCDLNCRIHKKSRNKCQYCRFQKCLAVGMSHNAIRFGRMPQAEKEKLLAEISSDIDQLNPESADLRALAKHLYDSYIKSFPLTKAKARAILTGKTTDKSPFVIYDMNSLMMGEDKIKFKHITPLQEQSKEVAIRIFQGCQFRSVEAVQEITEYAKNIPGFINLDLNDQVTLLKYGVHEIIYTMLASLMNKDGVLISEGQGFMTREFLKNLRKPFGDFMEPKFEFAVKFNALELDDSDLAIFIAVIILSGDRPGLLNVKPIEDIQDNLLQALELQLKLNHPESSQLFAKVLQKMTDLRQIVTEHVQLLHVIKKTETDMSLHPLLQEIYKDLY

3T3-L1 [9] = assay: Reduction in lipogenesis in mouse 3T3L1 cells assessed as down regulation of Acaca gene exression by real time-qPCR analysis; type: functional, cell-based
[10] = target: T3, Peroxisome proliferator-activated receptor delta (Homo sapiens) (UniProt Q03181); assay: Agonist activity at PPAR-delta (unknown origin) by transactivation assay
T3 sequence (whole entry): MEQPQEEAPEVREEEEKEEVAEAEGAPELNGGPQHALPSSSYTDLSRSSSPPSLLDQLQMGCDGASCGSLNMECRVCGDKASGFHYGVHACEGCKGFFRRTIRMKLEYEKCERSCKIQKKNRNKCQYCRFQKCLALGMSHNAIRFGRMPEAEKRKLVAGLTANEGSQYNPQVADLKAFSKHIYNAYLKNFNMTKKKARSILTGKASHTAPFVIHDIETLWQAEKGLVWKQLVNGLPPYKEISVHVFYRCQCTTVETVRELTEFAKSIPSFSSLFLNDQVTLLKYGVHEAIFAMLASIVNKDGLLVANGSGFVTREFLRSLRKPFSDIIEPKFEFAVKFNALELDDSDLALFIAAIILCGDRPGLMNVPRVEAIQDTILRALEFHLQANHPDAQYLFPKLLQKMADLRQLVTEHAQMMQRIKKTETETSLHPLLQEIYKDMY

3T3-L1 [11] = assay: Induction of lipolysis in mouse 3T3L1 cells assessed as up-regulation of Acox1 gene exression by real time-qPCR analysis; type: functional, cell-based
3T3-L1 [12] = assay: Effect on adipogenesis in mouse 3T3L1 cells assessed as reduction in Adipoq gene expression at 5 to 50 uM after 8 days by real time quantitative PCR analysis relative to vehicle-treated control; type: functional, cell-based
3T3-L1 [13] = assay: Reduction of adipogenesis in mouse 3T3L1 cells assessed as decrease in lipid accumulation measured on day 8 by fluorescence-based AdipoRed assay; type: functional, cell-based
[14] = target: T2, Peroxisome proliferator-activated receptor gamma (Mus musculus); assay: Agonist activity at PPAR-gamma in mouse embryo fibroblast by transactivation assay relative to rosiglitazone

IC50 [7]: 5 µM
Activity [8]: 33%
Activity [10]: inactive
Activity [14]: Dose-dependent effect
SMILES: CCCCCCCc1oc2cc(O)ccc2c(=O)c1-c1ccc(OC)cc1
Activity [1]: Non-toxic
Activity (3T3-L1 [2]): Active
Activity (3T3-L1 [3]): inactive
Activity [4]: inactive
Activity [5]: Non-toxic
Activity (3T3-L1 [6]): Dose-dependent effect
Activity (3T3-L1 [9]): Active
Activity (3T3-L1 [11]): Active
Activity (3T3-L1 [12]): Dose-dependent effect
Activity (3T3-L1 [13]): Dose-dependent effect
